Assay results: US12502430B2, “Compound for photodynamic therapy of cancer, composition including same, and method for photodynamic therapy of cancer” (Pukyong National University Industry-University Cooperation …, priority 2021, dated 2025)

Legend:
[1] = UV-Vis absorption and fluorescence emission spectroscopy; type: physicochemical; details: in Toluene
Description: The photophysical properties of the collected products were studied by UV-Vis absorption and fluorescence emission spectroscopy, and the results are shown in FIGS. 1A to 1B and Table 1. In the UV-Vis absorption spectrum, BO and NO show absorption peaks in the region of about 380 nm, and BS and NS show absorption maximum values in the region of about 435 nm. The difference in the absorption peak may be confirmed from the shape difference of the HOMO-LUMO of FIG. 2A.

[2] = Singlet oxygen quantum yield determination; type: physicochemical; details: determined with respect to Ru(bpy)3^2+; — = not observed
Description: Compounds BO and NO show strong fluorescence (ΦFBO=0.71, ΦF NO=0.28), but ISC is inefficient due to weak spin-orbit coupling (SOC).

HeLa cells [3] = assay: MTT photo/dark cytotoxicity assay with blue light irradiation; type: cell-based; details: for cell viability (dark cytotoxicity): MTT, FIGS. 3A and 3B, 20 μM printed for BS; for IC50: normoxia, after blue light irradiation, read-out: IC50 (photocytotoxicity); for cancer cell toxicity without light: working concentration; for cell death under blue light irradiation: both normoxia and hypoxia
Procedure: Cell toxicity was evaluated by treating HeLa cells with 10 μM NS and BS solutions, respectively, incubating cells for 30 minutes, and then irradiating blue light (blue LED, 80 mW/cm^2) for 5 minutes. The results are shown in FIGS. 3A to 3C and FIGS. 4A to 4D. Based on the ^1O2 generation efficiency and photostability of BS and NS of FIGS. 3A to 3C, photo/dark cytotoxicity to HeLa cells was observed using MTT (traditional methyl thiazolytetralium) assay. FIGS. 3A and 3B show viability of 85% in BS (20 μM) and 97% in NS. The introduction of the C═S bond leads to a highly efficient ISC process, improving the generation of type I and type II ROS, thereby resulting in high ^1O2 quantum yield as well as O2· production. […] NS induces higher photocytotoxicity than BS by higher oxygen quantum yield and may be utilized as a phototheranostic agent with a low IC50 value in normoxia. Further, in FIG. 3C, NS (3 μM) has a cell viability of 29.6% under a normoxia condition and a cell viability of 36.5% under a hypoxia condition (mixed gas: 5% CO2, 1% O2 and 94% N2) so as to effectively induce photocytotoxicity to HeLa cells.

HeLa cells [4] = assay: DCFH-DA ROS fluorescence imaging after blue LED irradiation; type: cell-based; details: 5 μM, DCFH-DA 10 μM, blue LED 5 minutes
Procedure: FIG. 4A is a diagram illustrating a fluorescence image of live HeLa cells after incubation in BS (5 μM) and DCFH-DA (10 μM) for 30 minutes, and FIG. 4C is a diagram illustrating a BS fluorescence image after light irradiation under blue LED light for 5 minutes thereafter (λ=473 nm and λem=490 to 590 nm) according to an example embodiment of the present disclosure in which these compounds were dissolved in DMSO.
FIG. 4B is a diagram illustrating s a fluorescence image of live HeLa cells after incubation in NS (5 μM) and DCFH-DA (10 μM) for 30 minutes according to an example embodiment of the present disclosure, and FIG. 4D is a diagram illustrating an NS fluorescence image after light irradiation under blue LED light for 5 minutes thereafter (λex=473 nm and λem=490 to 590 nm) in which these compounds were dissolved in DMSO.
Finally, their fluorescence is completely recovered after hypochlorite anion (OCl^−) treatment using the OCl^− probe of live HeLa cells. […] It may be confirmed that the C═S group plays an important role in the generation of type I ROS of previously unreported photosensitizers (PS).

[5] = Response and selectivity for detection of OCl− (UV-Vis and fluorescence); details: 20 μM; for isosbestic point in UV-vis titration with OCl−: NaClO 0 to 75 μM, PBS pH 7.4 with 50% THF; for selectivity for OCl− among ROS, RNS and metal ions: OCl− 60 μM, PBS pH 7.4/THF (5/5); for fluorescence wavelength at which intensity was read: PBS buffer 10 mM pH 7.4 containing 50% THF
Procedure: Fluorescence intensity ratios were measured for each of BS and NS in […] (10 mM, pH=7.4) containing 50% THF at the presence of OCl^− (60 μM), ROO·(1 mM), NO·(1 mM), H2O2 (1 mM), TBHP (1 mM), ONOO^− (100 μM), ·OH (200 μM) and various metal ions (200 μM): Ag^+, Hg^2+, Fe^2+, and other ions (Ni^2+, Cu^2+, Zn^2+, Cd^2+, Mg^2+, Ca^2+, Cr^3+, Mn^2+, Fe^3+, Li^+, Na^+, K^+, Cs^+). Recognition of ROS, RNS and metal cations by BS and NS was investigated through colorimetric changes, UV absorption and fluorescence emission changes in PBS 7.4 pH/THF (5/5).
Similarly, in FIG. 6C, the broad absorption band decreases in the 420 to 600 nm range of the NS solution, whereas the absorption band at 370 nm gradually increases with OCI^−-addition (a characteristic of NO).
In Scheme 3, the photophysical change by oxidative desulfurization from the C═S groups of BS and NS to the corresponding C═O groups of BO and NO by hypochlorous acid (OCl^−) may be shown.

HeLa cells [6] = assay: Bio-imaging of OCl− by confocal fluorescence microscopy; type: cell-based; details: 10 μM, 10 minutes, then OCl− 10 minutes
Procedure: HeLa cells were treated with 10 μM NS and BS solutions, respectively. Then, HeLa cells were incubated for 10 minutes and then incubated with hypochlorous acid (OCl^−) for 10 minutes to perform hypochlorous acid (OCl^−) detection fluorescence signal and bioimaging.

**Q.** With O=c1c2cccc3cccc(c32)c2nc3ccccc3n12 [BO, reference compound] as the compound, how does the “ΔV (Stock shift)” value [1] read?
**A.** 105 nm

**Q.** What about the “ε × 10^3” value [1] of the same compound?
**A.** 8.54 × 10^3 M^−1 cm^−1

**Q.** And the λems [1]?
**A.** 488 nm

**Q.** What about the “ΦF (fluorescence quantum yield)” value ([1]; Rhodamine 6G as the standard, — = not observed) of the same compound?
**A.** 0.71

**Q.** With S=c1c2cccc3cccc(c32)c2nc3ccccc3n12 [BS] as the compound, how does the “ΔV (Stock shift)” value [1] read?
**A.** 66 nm

**Q.** What about the “ε × 10^3” value [1] of the same compound?
**A.** 10.85 × 10^3 M^−1 cm^−1

**Q.** What about the λems [1] of the same compound?
**A.** 495 nm

**Q.** What about the “ΦΔ (singlet oxygen quantum yield)” value [2] of the same compound?
**A.** 0.66

**Q.** And the “cell viability (dark cytotoxicity)” value (HeLa cells [3]; HeLa cells)?
**A.** 85%

**Q.** What about the IC50 (HeLa cells [3]; HeLa cells) of the same compound?
**A.** 5.81 µM

**Q.** And the “cancer cell toxicity without light” value (HeLa cells [3]; HeLa cells)?
**A.** negligible cancer cell toxicity

**Q.** And the “cell death under blue light irradiation” value (HeLa cells [3])?
**A.** rapidly induce cell death

**Q.** What about the “ROS generation (DCFH-DA green signal)” value (HeLa cells [4]) of the same compound?
**A.** may generate ROS

**Q.** What about the “isosbestic point in UV-vis titration with OCl−” value [5] of the same compound?
**A.** 403 nm

**Q.** What about the “selectivity for OCl− among ROS, RNS and metal ions” value [5] of the same compound?
**A.** high selectivity

**Q.** And the “fluorescence wavelength at which intensity was read” value [5]?
**A.** 505 nm

**Q.** What about the “intracellular OCl− detection” value (HeLa cells [6]) of the same compound?
**A.** adequately detect OCl^−

**Q.** Which results are given for S=c1c2cccc3cccc(c32)c2nc3cc4ccccc4cc3n12 [NS]?
**A.** ΔV (Stock shift) [1]: 110 nm; ε × 10^3 [1]: 17.87 × 10^3 M^−1 cm^−1; λems [1]: 551 nm; ΦΔ (singlet oxygen quantum yield) [2]: 0.81; cell viability, hypoxia (HeLa cells [3]; HeLa cells, 3 μM, hypoxia condition (5% CO2, 1% O2 and 94% N2), light): 36.5%; cell viability, normoxia (HeLa cells [3]; HeLa cells, 3 μM, normoxia condition, light): 29.6%; cell viability (dark cytotoxicity) (HeLa cells [3]; HeLa cells): 97%; IC50 (HeLa cells [3]; HeLa cells): 1.03 µM; cancer cell toxicity without light (HeLa cells [3]; HeLa cells): negligible cancer cell toxicity; cell death under blue light irradiation (HeLa cells [3]): rapidly induce cell death; ROS generation (DCFH-DA green signal) (HeLa cells [4]): may generate ROS; isosbestic point in UV-vis titration with OCl− [5]: 411 nm; selectivity for OCl− among ROS, RNS and metal ions [5]: high selectivity; fluorescence wavelength at which intensity was read [5]: 559 nm; intracellular OCl− detection (HeLa cells [6]): adequately detect OCl^−
